Measurements as given in patent US4921958A, “Piperazinylalkylcarboxylic acid adamantylamides” (American Home Products Corporation, priority 1989, dated 1990).
Where two headings read alike, the source gives them in different places.

How the values were obtained:
[1] = biological target: T1, 5-HT1A serotonin receptor subtype (Rattus norvegicus, UniProt P19327); assay: Displacement of 3H-8-OH DPAT from the 5-HT1A serotonin receptor subtype (Hall et al.); format: binding; details: for inhibition at 1 µM: 1 μM test compound, read-out: % Inhibition at 1 μM (Affinity for 5-HT1A Receptor Sites); for Ki: calculated from appropriate IC50 values, 3H-8-OH DPAT, read-out: Ki (Affinity for 5-HT1A Receptor Sites)
T1 construct: from tissue
T1 sequence (P19327 1-422): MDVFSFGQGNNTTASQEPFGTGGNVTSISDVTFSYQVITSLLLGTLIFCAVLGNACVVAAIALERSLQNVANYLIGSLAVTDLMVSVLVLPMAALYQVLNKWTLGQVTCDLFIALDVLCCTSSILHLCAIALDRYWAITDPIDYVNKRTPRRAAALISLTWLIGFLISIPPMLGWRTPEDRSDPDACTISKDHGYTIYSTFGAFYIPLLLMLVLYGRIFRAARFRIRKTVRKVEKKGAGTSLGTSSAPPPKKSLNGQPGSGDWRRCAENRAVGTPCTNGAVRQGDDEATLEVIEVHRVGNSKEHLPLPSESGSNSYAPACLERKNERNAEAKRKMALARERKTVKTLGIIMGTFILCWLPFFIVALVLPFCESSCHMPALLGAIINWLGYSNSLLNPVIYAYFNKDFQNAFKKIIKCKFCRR
Description: The serotoninergic properties of the compounds of this invention were established by the procedure of Hall et al., J. Neurochem.

[2] = biological target: T2, limbic D2 (dopamine) receptor (Rattus norvegicus, UniProt P61169); assay: Inhibition of 3H-spiroperidol binding to limbic brain tissue (D2 receptor affinity; modified Fields et al. and Yamamura et al.); details: 1 μM test compound
T2 construct: from tissue; host or cells: limbic brain tissue
T2 sequence (P61169 whole entry): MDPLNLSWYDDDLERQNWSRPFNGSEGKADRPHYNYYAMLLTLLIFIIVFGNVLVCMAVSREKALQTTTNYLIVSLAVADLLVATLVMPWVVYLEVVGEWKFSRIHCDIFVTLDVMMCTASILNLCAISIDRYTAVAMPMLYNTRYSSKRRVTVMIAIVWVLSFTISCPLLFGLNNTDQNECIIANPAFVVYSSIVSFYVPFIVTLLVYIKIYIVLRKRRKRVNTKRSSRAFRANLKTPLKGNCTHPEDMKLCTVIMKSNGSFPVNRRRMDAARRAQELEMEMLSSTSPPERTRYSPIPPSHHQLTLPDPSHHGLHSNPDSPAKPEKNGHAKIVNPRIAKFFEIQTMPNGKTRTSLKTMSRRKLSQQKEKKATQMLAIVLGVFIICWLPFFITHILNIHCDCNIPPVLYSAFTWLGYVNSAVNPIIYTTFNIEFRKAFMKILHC
Experimental: The compounds of this invention are antidepressant, anxiolytic agents useful in the treatment of depression and/or anxiety as a singular, primary mental problem as well as secondary, attending problems such as sexual dysfunction. […] The D2 receptor affinity of the compounds of this invention was determined by a modification of the test procedure of Fields et al., Brain Res. 136, 578 (1977) and Yamamura et. al., eds., Neurotransmitter Receptor Binding, Raven Press, N.Y. (1978) as discussed in U.S. No. 4,636,563. The percentage reduction of ^3 H-spiroperidol binding at 1 μM concentration of test compound is reported, infra.

[3] = in words, Barone et al., 1986; cited from earlier work
[4] = 3H-spiroperidol, read-out: % Inhibition at 1 μM (Affinity for D2 Receptor Sites)

Row | SMILES | inhibition at 0.1 µM ([1]; 100 nM test compound, displacement of 3H-8-OH DPAT, read-out: % Inhibition at 100 nM (Affinity for 5-HT1A Receptor Sites)) [%] | inhibition at 1 µM ([1]; displacement of 3H-8-OH DPAT) [%] | Ki [1] [nM] | inhibition at 1 µM [2, 4] [%] | inhibition at 1 µM ([2]; limbic brain tissue, read-out: inhibition of 3H-spiroperidol binding to limbic brain tissue) [%] | clinical efficacy as anxiolytic-antidepressant agents [3]
1 | COc1ccccc1N1CCN(CCC(=O)NC23CC4CC(CC(C4)C2)C3)CC1 [Example 2, 4-(2-methoxyphenyl)-N-tricyclo[3.3.1.1(3,7)]dec-1-yl-1-piperazinepropanamide] | 86 | 100 | 9 | 74 | 74 | –
2 | Cc1nc2sccn2c(=O)c1CCN1CCC(=C(c2ccc(F)cc2)c2ccc(F)cc2)CC1 [Ritanserin] | – | – | – | – | – | demonstrate clinical efficacy
3 | COc1ccccc1N1CCN(CC(C(=O)NC23CC4CC(CC(C4)C2)C3)c2ccccc2)CC1 (stereo not shown) [Example 3, N-(1-Tricyclo[3.3.1.1(3,7)]decyl)-3-[1-[4-(2-methoxyphenyl)piperazinyl]]-2-phenylpropanamide] | – | – | 83 | – | – | –
4 | O=C(CCN1CCN(c2ncccn2)CC1)NC12CC3CC(CC(C3)C1)C2 [Example 1, 4-(2-pyrimidyl)-N-tricyclo[3.3.1.1(3.7)]dec-1-yl-1-piperazinepropanamide] | – | 79 | 130 | 14 | – | –
